Laboratory results as given in patent EP2818467A1, “Multi-target drug compounds for the treatment of neurodegenerative disorders” (Universitat de Barcelona, priority 2013, dated 2014).
Entries after “also recorded” stand apart in the source; their conditions may differ.

Assays:
Type in all cases: in vivo
APP/PS1 mice [1] = experiment: Aβ immunohistochemistry, Aβ burden in neocortex; conditions: 5 mg/kg/day i.p. for 4 weeks, compared to vehicle-treated animals
Protocol: (§1) Animals and treatment: The experiments were carried out on male APP/PS1 mice, which express the human mutated forms APPswe and PS1dE9, and wild-type (WT) littermates which were 5 month-old at the beginning of the study. In the present work, identification of transgenic mice was carried out as follows: genomic DNA was isolated from 1-cm tail clips and genotyped by polymerase chain reaction (PCR) technique using the PCR conditions proposed by Jackson Laboratory. Animals were maintained under standard animal housing conditions in a normal 12-h dark-light cycle with free access to food and water. The sample size for experimentation was computed using the Power and Precision software (Biostat, Englewood, NJ, USA), assuming a power of 95% and no missing data. Animal procedures were conducted according to ethical guidelines (European Community Council Directive 86/609/EEC) and approved by the local ethical committee (UB-IDIBELL). The compounds (5 mg/kg) were dissolved in 1% DMSO and 99% saline, and were injected intraperitoneally (i.p.) in a volume of 10 mL/kg body weight. Animals were treated once daily for 4 weeks with (αS,7R,11R)-(Ia), (αS,7S,11S)-(Ia), (±)-(Ib), (±)-(Ic) or the corresponding vehicle (VEH) (wild-type, n = 6; APP/PS1, n = 6, each group). After 2 days of washing period, animals were subjected to behavioral evaluation.
Tissue Collection: At the end of the behavioral testing, the animals were sacrificed and their brains were removed. One brain hemisphere was dissected on ice, immediately frozen and stored at -80 °C until processing for protein or RNA quantification. The other brain hemisphere was fixed in 4% paraformaldehyde and processed for immunohistochemistry.
Aβ immunohistochemistry: Tissue samples were embedded in paraffin and coronal sections (4 µm) were cut with a microtome. […] No immunostaining was detected in these sections. […] The Aβ burden in neocortex was calculated as the percentage of the Aβ deposition area with respect to the total area in 9 representative pictures, corresponding to the main regions where Aβ deposition is observed in APP/PS1 mice. Sections from all the APP/PS1 animals were evaluated by using the Analysis tool of the software Adobe® Photoshop® CS4.
(§2) Densitometric quantification of glia around Aβ plaques: Astrocytic and microglial responses to Aβ deposition were evaluated by densitometric quantification of GFAP and Iba1 protein expression levels around Aβ plaques, respectively. […] Statistical analysis: Data were analyzed by two-way ANOVA with genotype and treatment or age as between factors, followed by Tukey's post hoc test when required. Aβ and glia quantifications were analyzed by one-way ANOVA followed by Tukey's post hoc test when required.

APP/PS1 mice [2] = experiment: glial (GFAP) and Aβ double-immunofluorescence, astrocytes around Aβ plaques; conditions: 5 mg/kg i.p. once daily for 4 weeks, FIG 3
Protocol: as §1, with “The compounds (5 mg/kg) were dissolved in 1% DMSO and 99% saline, and were injected intraperitoneally (i.p.) in a volume of 10 mL/kg body weight. Animals were treated once daily for 4 weeks with (αS,7R,11R)-(Ia), (αS,7S,11S)-(Ia), (±)-(Ib), (±)-(Ic) or the corresponding vehicle (VEH) (wild-type, n = 6; APP/PS1, n = 6, each group). After 2 days of washing period, animals were subjected to behavioral evaluation.” left out
(§3) Tissue Collection: At the end of the behavioral testing, the animals were sacrificed and their brains were removed. One brain hemisphere was dissected on ice, immediately frozen and stored at -80 °C until processing for protein or RNA quantification. […]
(§4) Glial and Aβ double-immunofluorescence: De-waxed sections were stained with a saturated solution of Sudan black B (Merck) for 30 min to block the autofluorescence of lipofuscin granules present in cell bodies, then rinsed in 70% ethanol and washed in distilled water. […] After washing, the sections were incubated with Alexa488 or Alexa546 (1:400, Molecular Probes) fluorescence secondary antibodies against the corresponding host species. […]
as §2, with “Aβ and glia quantifications were analyzed by one-way ANOVA followed by Tukey's post hoc test when required.” left out

APP/PS1 mice [3] = experiment: two-object recognition test (V-maze), cognitive performance; conditions: male APP/PS1 mice, 5 month-old, 5 mg/kg i.p. once daily for 4 weeks, FIG 1; for memory impairment in the two-object recognition test: tested after 2 days of washing period, 5 mg/kg
Protocol: as §1, with “The compounds (5 mg/kg) were dissolved in 1% DMSO and 99% saline, and were injected intraperitoneally (i.p.) in a volume of 10 mL/kg body weight. Animals were treated once daily for 4 weeks with (αS,7R,11R)-(Ia), (αS,7S,11S)-(Ia), (±)-(Ib), (±)-(Ic) or the corresponding vehicle (VEH) (wild-type, n = 6; APP/PS1, n = 6, each group). After 2 days of washing period, animals were subjected to behavioral evaluation.” left out
Behavioral evaluation of cognitive performance: The two-object recognition test was performed. […] On the second day, mice were placed for 9 min in the maze, where two identical objects were situated at the end of the arms, and the time that the mice spent exploring each object was recorded. […] The time that the animals spent exploring the two objects was recorded and an object recognition index was calculated as the difference between the time spent exploring the novel and the familiar object, divided by the total time spent exploring the two objects.
as §2

APP/PS1 mice [4] = experiment: glial (Iba1) and Aβ double-immunofluorescence, microglia around Aβ plaques; conditions: 5 mg/kg i.p. once daily for 4 weeks, compared to vehicle-treated APP/PS1 animals, FIG 4
Protocol: Animals and treatment: The experiments were carried out on male APP/PS1 mice, which express the human mutated forms APPswe and PS1dE9, and wild-type (WT) littermates which were 5 month-old at the beginning of the study. In the present work, identification of transgenic mice was carried out as follows: genomic DNA was isolated from 1-cm tail clips and genotyped by polymerase chain reaction (PCR) technique using the PCR conditions proposed by Jackson Laboratory. Animals were maintained under standard animal housing conditions in a normal 12-h dark-light cycle with free access to food and water. […]
as §3, §4

SMILES | Aβ burden in the cortex (APP/PS1 mice [1]; FIG 2) | number of astrocytes around Aβ plaques (GFAP/Aβ) (APP/PS1 mice [2]) | recognition index (APP/PS1 mice [3]; compared to vehicle-treated animals) | memory impairment in the two-object recognition test (APP/PS1 mice [3]) | Aβ burden in the cortex (APP/PS1 mice [1]; FIG 2, 5 mg/kg/day) | number of microglial cells associated with Aβ plaques (Iba1/Aβ) (APP/PS1 mice [4])
CCC(C(=O)NCCCCCCCNc1c2c(nc3cc(Cl)ccc13)CCCC2)N1CCCC1=O (racemic) [(±)-(Ib), (±)-N-{7-[(6-chloro-1,2,3,4-tetrahydroacridin-9-yl)amino]heptyl}-2-(2-oxopyrrolidin-1-yl)butanamide] | tends to reduce | produced a tendency to reduce |  |  |  | 
CCC(C(=O)NCCCCCCCNc1c2c(nc3ccccc13)CCCC2)N1CCCC1=O (racemic) [(±)-(Ic), (±)-N-{7-[(1,2,3,4-tetrahydroacridin-9-yl)amino]heptyl}-2-(2-oxopyrrolidin-1-yl)butanamide] | tends to reduce |  | significantly increased | did not exhibit memory impairment; also recorded: reverse the memory impairment |  | 
CC[C@@H](C(=O)NCCCCCCCNc1c2c(nc3cc(Cl)ccc13)C[C@@H]1C=C(C)C[C@H]2C1)N1CCCC1=O [(αS,7R,11R)-(Ia), (+)-(αS,7R,11R)-N-{7-[(3-chloro-6,7,10,11-tetrahydro-9-methyl-7,11-methanocycloocta[b]quinolin-12-yl)amino]heptyl}-2-(2-oxopyrrolidin-1-yl)butanamide] | tends to reduce | produced a tendency to reduce |  |  |  | 
CC[C@@H](C(=O)NCCCCCCCNc1c2c(nc3cc(Cl)ccc13)C[C@H]1C=C(C)C[C@@H]2C1)N1CCCC1=O [(αS,7S,11S)-(Ia), (-)-(αS,7S,11S)-N-{7-[(3-chloro-6,7,10,11-tetrahydro-9-methyl-7,11-methanocycloocta[b]quinolin-12-yl)amino]heptyl}-2-(2-oxopyrrolidin-1-yl)butanamide] |  | produced a tendency to reduce |  | did not exhibit memory impairment; also recorded: reverse the memory impairment | tends to reduce; also recorded: reduction in the cortical Aβ plaques deposition | decreased microglial reaction
